Results from US20200261534A1, “NEW TREATMENTS OF MULTIPLE MYELOMA” (priority 2017, published 2020).
Starred links: 1 amine or outer side, 2 acyl side, 3 side chain; linkers in the order of their positions; H or OH if unused. Positions of bridges follow the written chain, without caps; N, C: chain ends. Non-standard residues stand in square brackets, D forms with d. Residues, ends and D or L forms follow the SMILES beside them. ξ: configuration not given here. ξαMeNle(6-ylidene) = CC(CCCC=[*:3])(N[*:1])C(=O)[*:2]; X1 = CC(CCCCCCC=[*:3])(N[*:1])C(=O)[*:2]

What was measured:
Assay type in all cases: cell-based
[1] = tested on: MM144, lymphoblast (myeloma); test: MTT viability assay, MM144; conditions: 24-72 h, Table 7, read-out: IC50 values in μM for S09
Procedure: MM144, lymphoblast (myeloma), University of Salamanca
(§1) All cell lines were cultured in incubator at 37° C. in RPMI-1640 (Sigma R8758) medium with 10% of fetal bovine serum inactivated (FBS) and 2 mM glutamine (Sigma G7513). During the amplification step cells were centrifuged and transferred into the culturing medium. Cells were counted in a Neubauer chamber after labelling with Tripan-Blue.
(§2) Cells were seeded at a density of 10000 cells/well in 100 μl of medium in 96 well plates. After 24 h, the compounds to be tested were added to calculate the dose/response curve at the starting concentration of 100 μM with serial dilutions (1:1). Controls are the untreated cells. Each experiment was performed in triplicate.
(§3) Cells were incubated with the peptidomimetic compound (S09) at the indicated concentrations during 24-72 h in incubator under CO2 atmosphere at 37° C. Then, cell viability was measured by means of MTT (3-(4,5-dimethylthiazol-2-yl)-2,5-diphenyltetrazolium bromide) assay. Stock solution of MTT (475989 Calbiochem) was 5 mg/ml in PBS. […] Absorbance at 570 nm was finally measured. […]
(§4) Data analysis was performed calculating the percentage of cell viability normalized vs. the values of negative control, which was considered equal to 100%. The dose/response curve was fitted through the sigmoidal equation dose-response (variable slope) and the IC50 values were calculated as follow: […]

[2] = tested on: U266, lymphoblast (myeloma); test: MTT viability assay, U266; conditions: 24-72 h, Table 7, read-out: IC50 values in μM for S09
Procedure: U266, lymphoblast (myeloma), ATCC® TIB196™
as §1, §2, §3, §4

[3] = tested on: NCI-H929, lymphoblast (myeloma); test: MTT viability assay, NCI-H929; conditions: 24-72 h, Table 7, read-out: IC50 values in μM for S09
Procedure: NCI-H929, lymphoblast (myeloma), ATCC® CRL-9068™
as §1, §2, §3, §4

[4] = tested on: OPM-2, lymphoblast (myeloma); test: MTT viability assay, OPM-2; conditions: OPM2, 24-72 h, Table 7, read-out: IC50 values in μM for S09
Procedure: OPM-2, lymphoblast (myeloma), DSMZ No. ACC50
as §1, §2, §3, §4

[5] = tested on: BJ, fibroblast (normal skin); test: MTT viability assay, BJ; conditions: incubation 24-72 h, Table 3
Procedure: BJ, fibroblast (normal skin), ATCC® CRL-2522™
Cell lines A549, MCF-7 and RAMOS were cultured in incubator under CO2 (6%) at 37° C. in DMEM high glucose (Dulbecco's Modified Eagle Solution, Gibco-BRL 31966-21) medium with 10% fetal bovine serum inactivated (FBS) (Gibco-BRL 10106-169). Cell lines HL-60 and MM.1S were cultured in incubator at 37° C. in RPMI-1640 (Sigma R8758) medium with 10% of fetal bovine serum inactivated (FBS) and 2 mM glutamine (Sigma G7513). Cell lines BJ were cultured in incubator under CO2 (6%) at 37° C. in Eagle's Minimum Essential Medium (Sigma, M-2279) with 10% fetal bovine serum inactivated (FBS) (Gibco-BRL 10106-169).
During the amplification step and the assays adherent cells were rinsed with DPBS (Dulbecco's Phosphate Buffered Saline, Sigma D1283) three times and afterward treated for 5 minutes with trypsin ([…]) (Gibco-BRL, 15400054) in solution of DPBS at 37° C., and, once detached, transferred in the culturing medium. […] Cells were counted in a Neubauer chamber after labelling with Tripan-Blue. […]
as §3, with “compounds” for “peptidomimetic compound (S09)”, “assay.” for “assay. Stock solution of MTT (475989 Calbiochem) was 5 mg/ml in PBS.”

Compound: CC[C@H](C)[C@H](NC(=O)[C@H](Cc1ccc(O)cc1)NC(=O)[C@H](C)NC(=O)C1(C)CCCC=CCCCCCCC(C)(NC(=O)[C@H](CCCCN)NC(=O)[C@@H]2CCCN2C(=O)[C@H](C)N)C(=O)N[C@@H](C(C)C)C(=O)N[C@@H]([C@@H](C)CC)C(=O)N[C@@H](CC(C)C)C(=O)N[C@@H](CCCCN)C(=O)N[C@@H](CCCCN)C(=O)N[C@@H](C)C(=O)N1)C(=O)N[C@@H](CC(C)C)C(=O)N[C@@H](CO)C(=O)O (some centres unmarked) [S09, APKXVILKKAXAYILS—OH] (H-APK[X1]VILKKA[ξαMeNle(6-ylidene)]AYILS-OH; staple 4-11; N-terminus assumed)
- IC50 [1]: 6.8 µM
- IC50 [2]: 7.5 µM
- IC50 [3]: 3.6 µM
- IC50 [4]: 4.8 µM
- IC50 [5]: 47 ± 0.2 µM
